# Data from the supplement of paper PMC6045584.
# ± gives the standard deviation of the averaged measurements.
# Experiments:
# [1] = compound: T1, CN(C)C/C=C/C(=O)Nc1cc2c(Nc3ccc(F)c(Cl)c3)ncnc2cc1O[C@H]1CCOC1 [AFATINIB]; experiment: surviving fraction relative to DMSO-only wells; higher = less growth inhibition; settings: exposure time: 5 days
# In short: (§1)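 Surviving fraction was calculated by normalising CellTiter-Glo luminescence to the median of DMSO-only wells. Tumour cell lines in log phase were seeded in 384-well plates at 250–500 cells per well, and 24 hours later were exposed continuously for five days to inhibitors at 0.5, 1, 5, 10, 50, 100, 500 and 1000 nM.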
# [2] = compound: Cn1cc(C2=Nc3cc(NC(=O)C(N)C4CCCCC4)cc4c3C2=CNNC4=O)cn1; experiment: as above; settings: exposure time: 5 days
# In short: as §1
# [3] = compound: T2, CC[C@@H]1C(=O)N(C)c2cnc(Nc3ccc(C(=O)NC4CCN(C)CC4)cc3OC)nc2N1C1CCCC1 [BI-2536]; experiment: as above; settings: exposure time: 5 days
# In short: as §1
# [4] = compound: T3, C=CC(=O)Nc1cc2c(Nc3ccc(F)c(Cl)c3)ncnc2cc1OCCCN1CCOCC1 [CANERTINIB]; experiment: as above; settings: exposure time: 5 days
# In short: as §1
# [5] = compound: T4, CCCCCCCCCCCCCCCC(=O)Nc1ccn([C@@H]2O[C@H](CO)[C@@H](O)[C@@H]2C#N)c(=O)n1 [SAPACITABINE]; experiment: as above; settings: exposure time: 5 days
# In short: as §1
# [6] = compound: T5, Nc1nc2[nH]cnc2c(=S)[nH]1 [TIOGUANINE]; experiment: as above; settings: exposure time: 5 days
# In short: as §1
# [7] = compound: T6, CC1(C)CC(=O)c2c(C(F)(F)F)nn(-c3ccc(C(N)=O)c(N[C@H]4CC[C@H](OC(=O)CN)CC4)c3)c2C1 [SNX-5422]; experiment: as above; settings: exposure time: 5 days
# In short: as §1
# [8] = compound: T7, CNC(=O)c1ccc(N2C(=S)N(c3ccc(C#N)c(C(F)(F)F)c3)C(=O)C2(C)C)cc1F [MDV3100]; experiment: as above; settings: exposure time: 5 days
# In short: as §1
# [9] = compound: T1, AFATINIB; experiment: area under dose-response curve of surviving fraction (unscaled, Aref=0) (surviving fraction x log10(nM)); higher = more resistant; settings: exposure time: 5 days; dose range 0.5-1000 nM
# In short: (§2)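 Inhibitor was applied to tumour cell lines at eight concentrations (0.5 to 1000 nM) for five days in 384-well plates. Luminescence from CellTiter-Glo, scaled to DMSO-only wells, gave surviving fractions in three screens per line, and these were fitted by 3-parameter logistic regression with the drc R package. The area under the curve is an unscaled activity area. Aref was 0, and dose was on a log10 scale.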
# [10] = compound: Cn1cc(C2=Nc3cc(NC(=O)C(N)C4CCCCC4)cc4c3C2=CNNC4=O)cn1; experiment: as above; settings: exposure time: 5 days; dose range 0.5-1000 nM
# In short: as §2
# [11] = compound: T2, BI-2536; experiment: as above; settings: exposure time: 5 days; dose range 0.5-1000 nM
# In short: as §2
# [12] = compound: T3, CANERTINIB; experiment: as above; settings: exposure time: 5 days; dose range 0.5-1000 nM
# In short: as §2
# [13] = compound: T4, SAPACITABINE; experiment: as above; settings: exposure time: 5 days; dose range 0.5-1000 nM
# In short: as §2
# [14] = compound: T5, TIOGUANINE; experiment: as above; settings: exposure time: 5 days; dose range 0.5-1000 nM
# In short: as §2
# [15] = compound: T6, SNX-5422; experiment: as above; settings: exposure time: 5 days; dose range 0.5-1000 nM
# In short: as §2
# [16] = compound: T7, MDV3100; experiment: as above; settings: exposure time: 5 days; dose range 0.5-1000 nM
# In short: as §2
test system,measurement,setting,value
S68 BREAST,surviving fraction,[1]; 0.5 nM,0.958 ± 0.2
same,surviving fraction,[1]; 1 nM,0.976 ± 0.33
same,surviving fraction,[1]; 5 nM,0.735 ± 0.085
same,surviving fraction,[1]; 10 nM,0.809 ± 0.14
same,surviving fraction,[1]; 50 nM,0.656 ± 0.12
same,surviving fraction,[1]; 100 nM,0.907 ± 0.14
same,surviving fraction,[1]; 500 nM,0.478 ± 0.064
same,surviving fraction,[1]; 1000 nM,0.314 ± 0.055
same,surviving fraction,[2]; 0.5 nM,0.693 ± 0.42
same,surviving fraction,[2]; 1 nM,1.17 ± 0.18
same,surviving fraction,[2]; 5 nM,1.02 ± 0.12
same,surviving fraction,[2]; 10 nM,0.901 ± 0.12
same,surviving fraction,[2]; 50 nM,0.42 ± 0.048
same,surviving fraction,[2]; 100 nM,0.345 ± 0.041
same,surviving fraction,[2]; 500 nM,0.135 ± 0.012
same,surviving fraction,[2]; 1000 nM,0.0897 ± 0.0071
same,surviving fraction,[3]; 0.5 nM,0.884 ± 0.16
same,surviving fraction,[3]; 1 nM,0.839 ± 0.12
same,surviving fraction,[3]; 5 nM,0.343 ± 0.067
same,surviving fraction,[3]; 10 nM,0.271 ± 0.039
same,surviving fraction,[3]; 50 nM,0.166 ± 0.013
same,surviving fraction,[3]; 100 nM,0.116 ± 0.04
same,surviving fraction,[3]; 500 nM,0.0923 ± 0.022
same,surviving fraction,[3]; 1000 nM,0.067 ± 0.015
same,surviving fraction,[4]; 0.5 nM,0.642 ± 0.11
same,surviving fraction,[4]; 1 nM,0.813 ± 0.21
same,surviving fraction,[4]; 5 nM,0.748 ± 0.3
same,surviving fraction,[4]; 10 nM,0.793 ± 0.04
same,surviving fraction,[4]; 50 nM,1.04 ± 0.22
same,surviving fraction,[4]; 100 nM,1.01 ± 0.12
same,surviving fraction,[4]; 500 nM,0.636 ± 0.091
same,surviving fraction,[4]; 1000 nM,0.425 ± 0.12
same,surviving fraction,[5]; 0.5 nM,0.821 ± 0.029
same,surviving fraction,[5]; 1 nM,0.642 ± 0.021
same,surviving fraction,[5]; 5 nM,0.675 ± 0.066
same,surviving fraction,[5]; 10 nM,0.617 ± 0.094
same,surviving fraction,[5]; 50 nM,0.64 ± 0.22
same,surviving fraction,[5]; 100 nM,0.462 ± 0.039
same,surviving fraction,[5]; 500 nM,0.296 ± 0.032
same,surviving fraction,[5]; 1000 nM,0.284 ± 0.02
same,surviving fraction,[6]; 0.5 nM,1.2 ± 0.1
same,surviving fraction,[6]; 1 nM,0.975 ± 0.046
same,surviving fraction,[6]; 5 nM,0.981 ± 0.04
same,surviving fraction,[6]; 10 nM,0.941 ± 0.11
same,surviving fraction,[6]; 50 nM,1.1 ± 0.18
same,surviving fraction,[6]; 100 nM,1.04 ± 0.097
same,surviving fraction,[6]; 500 nM,1.05 ± 0.14
same,surviving fraction,[6]; 1000 nM,1.04 ± 0.27
same,surviving fraction,[7]; 0.5 nM,0.798 ± 0.3
same,surviving fraction,[7]; 1 nM,1.09 ± 0.27
same,surviving fraction,[7]; 5 nM,0.891 ± 0.2
same,surviving fraction,[7]; 10 nM,0.913 ± 0.18
same,surviving fraction,[7]; 50 nM,0.154 ± 0.019
same,surviving fraction,[7]; 100 nM,0.128 ± 0.021
same,surviving fraction,[7]; 500 nM,0.06 ± 0.0035
same,surviving fraction,[7]; 1000 nM,0.0703 ± 0.0051
same,surviving fraction,[8]; 0.5 nM,0.974 ± 0.2
same,surviving fraction,[8]; 1 nM,1.04 ± 0.035
same,surviving fraction,[8]; 5 nM,1.08 ± 0.11
same,surviving fraction,[8]; 10 nM,1.04 ± 0.027
same,surviving fraction,[8]; 50 nM,1.24 ± 0.076
same,surviving fraction,[8]; 100 nM,1.34 ± 0.2
same,surviving fraction,[8]; 500 nM,0.962 ± 0.21
same,surviving fraction,[8]; 1000 nM,0.949 ± 0.22
same,area under dose-response curve,[9],2.48
same,area under dose-response curve,[10],2.05
same,area under dose-response curve,[11],1.03
same,area under dose-response curve,[12],2.53
same,area under dose-response curve,[13],1.85
same,area under dose-response curve,[14],3.32
same,area under dose-response curve,[15],1.76
same,area under dose-response curve,[16],3.58
